Tested on: histamine induced paw oedema
Experiment: Histamine induced paw oedema (rat)
Assay type: in vivo, male Sprague-Dawley rats
Conditions: 1.0 mg/kg, intraperitoneal, 15 min before anaesthetics; histamine 50 microliter 3 mg/ml in right hind paw; swelling after 20 min
Description: I. Histamine Induced Paw Oedema The rat histamine paw oedema test was performed essentially as described by Amann et al. (Europ. J. Pharmacol. 279, 227-231, 1995). In brief 250-300 g male Sprague-Dawley rats were anaesthetized with pentobarbital sodium, and placed on a 32 degree (Celsius) heated table. Ten minutes later histamine (50 micoliter, 3 mg/ml) was injected in the right hind paw and 20 minutes hereafter the paw swelling was determined by water plethysmography (Ugo Basile). Test compounds were administered intraperitoneally at 15 minutes before the anaesthetics. Values for inhibition of histamine induced oedema response for some representative compounds are recorded in table 1.

Row | SMILES | % Oedema inhibition (inhibition of histamine induced oedema response)
1 | O=C(O)[C@@H]1CCCN(CCOC2Cc3ccccc3Sc3ccccc32)C1 (stereo partly drawn) [Example 1, 1-(2-(10,11-Dihydrodibenzo[b,f]thiepin-10-yloxy)-1-ethyl)-(3R)-piperidinecarboxylic acid acetate] | 37%
2 | Cc1ccc2c(c1)CC(OCCN1CCCC(C(=O)O)C1)c1ccccc1S2.O=C(O)C(=O)O (centres unmarked) [Example 5, 1-(2-(2-Methyl-10,11-dihydrodibenzo[b,f]thiepin-10-yloxy)-1-ethyl)-3-piperidinecarboxylic acid hydrogen oxalate] | 49%
